Data taken from patent US20250101041A1, “POSITIVE ALLOSTERIC MODULATORS OF THE MUSCARINIC ACETYLCHOLINE RECEPTOR M4” (Vanderbilt University, priority 2022, published 2025).

Target: T1, human mAChR M4 (Homo sapiens, UniProt P08173)
T1 construct: expressed in transfected cells; host or cells: CHO-K1 (American Type Culture Collection), stably expressing hM4 and Gqi5
T1 sequence (P08173 1-479): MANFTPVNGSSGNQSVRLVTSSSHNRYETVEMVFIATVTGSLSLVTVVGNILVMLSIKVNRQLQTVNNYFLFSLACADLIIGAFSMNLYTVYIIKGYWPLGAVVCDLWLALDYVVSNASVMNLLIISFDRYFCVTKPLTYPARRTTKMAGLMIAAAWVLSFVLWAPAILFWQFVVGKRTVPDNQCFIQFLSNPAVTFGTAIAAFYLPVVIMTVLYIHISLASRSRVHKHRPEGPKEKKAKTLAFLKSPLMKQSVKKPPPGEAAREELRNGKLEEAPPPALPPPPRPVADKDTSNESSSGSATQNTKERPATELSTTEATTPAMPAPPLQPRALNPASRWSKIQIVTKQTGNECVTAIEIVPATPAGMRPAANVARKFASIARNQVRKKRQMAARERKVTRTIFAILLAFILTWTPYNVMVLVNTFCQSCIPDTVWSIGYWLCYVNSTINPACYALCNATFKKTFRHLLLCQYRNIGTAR
Experiment: mAChR M4 cell-based functional assay: calcium mobilization (Fluo-4, FDSS), potentiation of EC20 acetylcholine response in hM4-Gqi5 CHO-K1 cells
Settings: human M4; for Emax at 30 µM: CHO-K1, % ACh maximum at 30 μM; for EC50: potentiation of EC20 acetylcholine response, calcium mobilization
Outline: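 Readout is the fluorescence-ratio rise at 1 Hz on FDSS, with PAM activity taken as concentration-dependent enhancement of the EC20 acetylcholine response, fitted four-parameter for EC50/Emax. hM4-Gqi5 CHO-K1 cells carried Fluo-4 AM dye; test compounds (11 points, 1:3) preceded EC20 acetylcholine additions at 144 s and 230 s.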

| SMILES | Emax at 30 µM | EC50 |
| --- | --- | --- |
| Cc1cc(=O)n2nc(N3CCc4ncc(-c5cnn6ccccc56)cc4C3)c(C)c(C)c2n1 [Compound 1-181, 2,8,9-trimethyl-7-(3-(pyrazolo[1,5-a]pyridin-3-yl)-7,8-dihydro-1,6-naphthyridin-6(5H)-yl)-4H-pyrimido[1,2-b]pyridazin-4-one] | 95% | 648 nM |
| Cc1cc(=O)n2nc(N3CCc4ncc(-c5ccc(F)nc5)cc4C3)c(C)cc2n1 [Compound 1-212, 7-(3-(6-fluoropyridin-3-yl)-7,8-dihydro-1,6-naphthyridin-6(5H)-yl)-2,8-dimethyl-4H-pyrimido[1,2-b]pyridazin-4-one] | 83% | 867 nM |
| Cc1cc(=O)n2nc(N3CCc4ncc(-c5cccnc5C)cc4C3)c(C)c(C)c2n1 [Compound 1-122, 2,8,9-trimethyl-7-(3-(2-methylpyridin-3-yl)-7,8-dihydro-1,6-naphthyridin-6(5H)-yl)-4H-pyrimido[1,2-b]pyridazin-4-one] | 93% | 2930 nM |
| Cc1c(N2CCc3ncc(N=S4(=O)CCCC4)cc3C2)nn2c(=O)ccnc2c1C [Compound 2-147, 8,9-dimethyl-7-(3-((1-oxidotetrahydro-126-thiophen-1-ylidene)amino)-7,8-dihydro-1,6-naphthyridin-6(5H)-yl)-4H-pyrimido[1,2-b]pyridazin-4-one] | 100% | 1240 nM |
| Cc1ccc2c(c1)N(c1cnc3c(c1)CN(c1nn4c(=O)ccnc4cc1C)CC3)CCO2 [Compound 2-53, 8-methyl-7-(3-(6-methyl-2,3-dihydro-4H-benzo[b][1,4]oxazin-4-yl)-7,8-dihydro-1,6-naphthyridin-6(5H)-yl)-4H-pyrimido[1,2-b]pyridazin-4-one] | 87% | 28 nM |
| Cc1cc2nccc(=O)n2nc1N1CCc2ncc(Nc3cc(C(F)(F)F)ncc3F)cc2C1 [Compound 2-152, 7-(3-((5-fluoro-2-(trifluoromethyl)pyridin-4-yl)amino)-7,8-dihydro-1,6-naphthyridin-6(5H)-yl)-8-methyl-4H-pyrimido[1,2-b]pyridazin-4-one] | 88% | 1320 nM |
| CCc1cc(=O)n2nc(N3CCc4ncc(-c5ccc(C)nc5)cc4C3)c(C)c(C)c2n1 [Compound 1-106, 2-ethyl-8,9-dimethyl-7-(3-(6-methylpyridin-3-yl)-7,8-dihydro-1,6-naphthyridin-6(5H)-yl)-4H-pyrimido[1,2-b]pyridazin-4-one] | 104% | 108 nM |
| Cc1cc2nccc(=O)n2nc1N1CCc2ncc(Nc3ccncc3F)cc2C1 [Compound 2-111, 7-(3-((3-fluoropyridin-4-yl)amino)-7,8-dihydro-1,6-naphthyridin-6(5H)-yl)-8-methyl-4H-pyrimido[1,2-b]pyridazin-4-one] | 98% | 11 nM |
| Cc1ncc(CNc2cnc3c(c2)CN(c2nn4c(=O)ccnc4cc2C)CC3)o1 [Compound 2-129, 8-methyl-7-(3-(((2-methyloxazol-5-yl)methyl)amino)-7,8-dihydro-1,6-naphthyridin-6(5H)-yl)-4H-pyrimido[1,2-b]pyridazin-4-one] | 105% | 686 nM |
| Cc1c(N2CCc3ncc(-c4cncc(F)c4)cc3C2)nn2c(=O)ccnc2c1C [Compound 1-103, 7-(3-(5-fluoropyridin-3-yl)-7,8-dihydro-1,6-naphthyridin-6(5H)-yl)-8,9-dimethyl-4H-pyrimido[1,2-b]pyridazin-4-one] | 93% | 449 nM |
| Cc1cc2nccc(=O)n2nc1N1CCc2ncc(-c3cn(C(F)F)nc3C)cc2C1 [Compound 1-417, 7-(3-(1-(difluoromethyl)-3-methyl-1H-pyrazol-4-yl)-7,8-dihydro-1,6-naphthyridin-6(5H)-yl)-8-methyl-4H-pyrimido[1,2-b]pyridazin-4-one] | 82% | 588 nM |
